These results are taken from PMC6776549, “Gingival solitary chemosensory cells are immune sentinels for periodontitis” (Nature Communications, 2019).

Test [1] concerns the target T1, Tas2r105 (Mus musculus, UniProt Q9JKT4).
T1 construct: coding region amplified from WT mouse taste bud cDNA; N-terminal tag of first 45 residues of rat somatostatin receptor 3; pcDNA3.1/Zeo(+); transient in HEK293 (PEAKrapid) with chimeric reporter G protein Galpha16gust44
T1 sequence (Q9JKT4 1-300): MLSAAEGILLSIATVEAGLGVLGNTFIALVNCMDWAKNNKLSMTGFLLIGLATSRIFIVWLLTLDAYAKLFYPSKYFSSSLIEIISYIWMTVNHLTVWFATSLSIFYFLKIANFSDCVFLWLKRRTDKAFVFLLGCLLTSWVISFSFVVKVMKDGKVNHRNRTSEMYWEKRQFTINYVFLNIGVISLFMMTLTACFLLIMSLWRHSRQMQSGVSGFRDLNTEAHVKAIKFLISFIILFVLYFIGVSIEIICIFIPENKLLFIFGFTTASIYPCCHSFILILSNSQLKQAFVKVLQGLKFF
Briefly: calcium mobilization in transfected HEK293. It is filed as cell-based. Particulars: agonist, Gα16gust44 co-expressed. On the technique in general: Calcium assays in cells follow changes in intracellular calcium, usually with a dye or a luminescent sensor.

Test [2] concerns the target T1, Tas2r105. The test is described as follows: calcium mobilization in transfected HEK293, fluorescence dose-response. It counts as cell-based.

Take `CCCCCCCC(=O)N[C@H]1CCOC1=O` [C8-HSL]: the “calcium mobilization in transfected HEK293” value in test [1] (synthetic compound) is “two synthetic HSLs: 3-oxo-C12-HSL and C8-HSL”.
Take `CCCCCCCCCC(=O)CC(=O)N[C@H]1CCOC1=O` [LasI]: the EC50 (as a rule, the concentration that produces a half-maximal response) in test [2] was found to be 8.9 µM.
As for `CC[N+](CC)(CC(=O)Nc1c(C)cccc1C)Cc1ccccc1` [denatonium benzoate], in test [1], the “calcium mobilization in transfected HEK293” value is on record as “Tas2r105 was also activated by the bitter compounds denatonium benzoate (Den)”.
